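Where inhibition never reached the appropriate level, the endpoint shown equals the highest concentration tested. Otherwise, values were interpolated linearly from a five-concentration, 48-hour dose response in 96-well plates. Here, GI50 denotes the concentration required for 50% inhibition of growth. TGI: concentration producing complete growth inhibition.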
Legend:
Assay in all cases: NCI-60 cell line screen, 48 h
[1] = system: SW-620 colon
[2] = system: A498 renal
[3] = system: CAKI-1 renal
[4] = system: UO-31 renal
[5] = system: RPMI-8226 leukemia
[6] = system: HL-60(TB) leukemia
[7] = system: SF-539 CNS
[8] = system: EKVX NSCLC
[9] = system: PC-3 prostate
[10] = system: SK-MEL-5 melanoma
[11] = system: MOLT-4 leukemia
[12] = system: LOX IMVI melanoma
[13] = system: A549 NSCLC
[14] = system: MDA-MB-435
[15] = system: RXF 393 renal
[16] = system: SN12C renal
[17] = system: HOP-92 NSCLC
[18] = system: M14 melanoma
[19] = system: SK-MEL-2 melanoma
[20] = system: UACC-257 melanoma
[21] = system: COLO 205 colon
[22] = system: OVCAR-4 ovarian
[23] = system: IGROV1 ovarian
[24] = system: MDA-MB-468 breast
[25] = system: OVCAR-8 ovarian
[26] = system: SF-268 CNS
[27] = system: OVCAR-5 ovarian
[28] = system: NCI-H226 lung
[29] = system: SK-MEL-28 melanoma
[30] = system: MDA-MB-231 breast
[31] = system: NCI-H460 lung
[32] = system: K-562 leukemia
[33] = system: HT29 colon
[34] = system: UACC-62 melanoma
[35] = system: HCC-2998 colon
[36] = system: HOP-62 NSCLC
[37] = system: NCI-H23 lung
[38] = system: MCF7 breast
[39] = system: MALME-3M melanoma
[40] = system: KM12 colon
[41] = system: CCRF-CEM leukemia
[42] = system: NCI-H522 lung
[43] = system: BT-549 breast
[44] = system: ACHN renal
[45] = system: SF-295 CNS
[46] = system: HCT-15 colon
[47] = system: TK-10 renal
[48] = system: OVCAR-3 ovarian
[49] = system: SNB-19 CNS
[50] = system: SK-OV-3 ovarian
[51] = system: DU-145 prostate
[52] = system: NCI/ADR-RES ovarian

Question: `COc1cccc(COc2ccc(/C=C3\Oc4cc(O)ccc4C3=O)cc2)c1` was tested. Which GI50 [1] did it give?
Answer: 23.1 µM

Question: What about the TGI [1] of the same compound?
Answer: > 100 µM

Question: And the GI50 [2]?
Answer: > 100 µM

Question: What about the TGI [2] of the same compound?
Answer: > 100 µM

Question: What about the GI50 [3] of the same compound?
Answer: 85.2 µM

Question: And the TGI [3]?
Answer: > 100 µM

Question: What about the GI50 [4] of the same compound?
Answer: > 100 µM

Question: And the TGI [4]?
Answer: > 100 µM

Question: What about the GI50 [5] of the same compound?
Answer: > 100 µM

Question: And the TGI [5]?
Answer: > 100 µM

Question: What about the GI50 [6] of the same compound?
Answer: > 100 µM

Question: What about the TGI [6] of the same compound?
Answer: > 100 µM

Question: And the GI50 [7]?
Answer: 23.4 µM

Question: What about the TGI [7] of the same compound?
Answer: > 100 µM

Question: What about the GI50 [8] of the same compound?
Answer: > 100 µM

Question: What about the TGI [8] of the same compound?
Answer: > 100 µM

Question: And the GI50 [9]?
Answer: > 100 µM

Question: What about the TGI [9] of the same compound?
Answer: > 100 µM

Question: What about the GI50 [10] of the same compound?
Answer: > 100 µM

Question: What about the TGI [10] of the same compound?
Answer: > 100 µM

Question: What about the GI50 [11] of the same compound?
Answer: > 100 µM

Question: What about the TGI [11] of the same compound?
Answer: > 100 µM

Question: And the GI50 [12]?
Answer: > 100 µM

Question: What about the TGI [12] of the same compound?
Answer: > 100 µM

Question: What about the GI50 [13] of the same compound?
Answer: > 100 µM

Question: What about the TGI [13] of the same compound?
Answer: > 100 µM

Question: And the GI50 [14]?
Answer: > 100 µM

Question: What about the TGI [14] of the same compound?
Answer: > 100 µM

Question: And the GI50 [15]?
Answer: > 100 µM

Question: What about the TGI [15] of the same compound?
Answer: > 100 µM

Question: And the GI50 [16]?
Answer: > 100 µM

Question: And the TGI [16]?
Answer: > 100 µM

Question: And the GI50 [17]?
Answer: 2.62 µM

Question: And the TGI [17]?
Answer: > 100 µM

Question: What about the GI50 [18] of the same compound?
Answer: > 100 µM

Question: And the TGI [18]?
Answer: > 100 µM

Question: What about the GI50 [19] of the same compound?
Answer: > 100 µM

Question: What about the TGI [19] of the same compound?
Answer: > 100 µM

Question: What about the GI50 [20] of the same compound?
Answer: > 100 µM

Question: What about the TGI [20] of the same compound?
Answer: > 100 µM

Question: What about the GI50 [21] of the same compound?
Answer: > 100 µM

Question: What about the TGI [21] of the same compound?
Answer: > 100 µM

Question: And the GI50 [22]?
Answer: 2.94 µM

Question: What about the TGI [22] of the same compound?
Answer: 10.6 µM

Question: What about the GI50 [23] of the same compound?
Answer: > 100 µM

Question: What about the TGI [23] of the same compound?
Answer: > 100 µM

Question: What about the GI50 [24] of the same compound?
Answer: 42.5 µM

Question: What about the TGI [24] of the same compound?
Answer: > 100 µM

Question: What about the GI50 [25] of the same compound?
Answer: > 100 µM

Question: What about the TGI [25] of the same compound?
Answer: > 100 µM

Question: And the GI50 [26]?
Answer: > 100 µM

Question: And the TGI [26]?
Answer: > 100 µM

Question: What about the GI50 [27] of the same compound?
Answer: > 100 µM

Question: What about the TGI [27] of the same compound?
Answer: > 100 µM

Question: And the GI50 [28]?
Answer: > 100 µM

Question: And the TGI [28]?
Answer: > 100 µM

Question: And the GI50 [29]?
Answer: > 100 µM

Question: What about the TGI [29] of the same compound?
Answer: > 100 µM

Question: And the GI50 [30]?
Answer: > 100 µM

Question: What about the TGI [30] of the same compound?
Answer: > 100 µM

Question: And the GI50 [31]?
Answer: > 100 µM

Question: And the TGI [31]?
Answer: > 100 µM

Question: And the GI50 [32]?
Answer: > 100 µM

Question: What about the TGI [32] of the same compound?
Answer: > 100 µM

Question: And the GI50 [33]?
Answer: > 100 µM

Question: What about the TGI [33] of the same compound?
Answer: > 100 µM

Question: What about the GI50 [34] of the same compound?
Answer: > 100 µM

Question: And the TGI [34]?
Answer: > 100 µM

Question: What about the GI50 [35] of the same compound?
Answer: > 100 µM

Question: What about the TGI [35] of the same compound?
Answer: > 100 µM

Question: And the GI50 [36]?
Answer: > 100 µM

Question: And the TGI [36]?
Answer: > 100 µM

Question: And the GI50 [37]?
Answer: > 100 µM

Question: And the TGI [37]?
Answer: > 100 µM

Question: And the GI50 [38]?
Answer: > 100 µM

Question: What about the TGI [38] of the same compound?
Answer: > 100 µM

Question: What about the GI50 [39] of the same compound?
Answer: > 100 µM

Question: What about the TGI [39] of the same compound?
Answer: > 100 µM

Question: And the GI50 [40]?
Answer: > 100 µM

Question: What about the TGI [40] of the same compound?
Answer: > 100 µM

Question: What about the GI50 [41] of the same compound?
Answer: > 100 µM

Question: What about the TGI [41] of the same compound?
Answer: > 100 µM

Question: And the GI50 [42]?
Answer: > 100 µM

Question: What about the TGI [42] of the same compound?
Answer: > 100 µM

Question: And the GI50 [43]?
Answer: > 100 µM

Question: What about the TGI [43] of the same compound?
Answer: > 100 µM

Question: What about the GI50 [44] of the same compound?
Answer: 4.97 µM

Question: And the TGI [44]?
Answer: > 100 µM

Question: And the GI50 [45]?
Answer: > 100 µM

Question: And the TGI [45]?
Answer: > 100 µM

Question: What about the GI50 [46] of the same compound?
Answer: > 100 µM

Question: And the TGI [46]?
Answer: > 100 µM

Question: And the GI50 [47]?
Answer: > 100 µM

Question: What about the TGI [47] of the same compound?
Answer: > 100 µM

Question: And the GI50 [48]?
Answer: > 100 µM

Question: What about the TGI [48] of the same compound?
Answer: > 100 µM

Question: And the GI50 [49]?
Answer: > 100 µM

Question: What about the TGI [49] of the same compound?
Answer: > 100 µM

Question: What about the GI50 [50] of the same compound?
Answer: > 100 µM

Question: And the TGI [50]?
Answer: > 100 µM

Question: What about the GI50 [51] of the same compound?
Answer: > 100 µM

Question: And the TGI [51]?
Answer: > 100 µM

Question: And the GI50 [52]?
Answer: > 100 µM

Question: What about the TGI [52] of the same compound?
Answer: > 100 µM

— PubChem BioAssay (NCI)
